According to paper PMC9403976, “Elucidating the path to Plasmodium prolyl-tRNA synthetase inhibitors that overcome halofuginone resistance” (Nature Communications, 2022):
Values joined by “and” are separate entries in the source; they are usually repeats but may differ in a detail not shown here. Equal values may be shown once.

Experiments:
HsProRS = HsProRS (Homo sapiens, UniProt P07814); experiment: TR-FRET ligand displacement assay with tracer MAT379 (CoraFluor-1-Halo and anti-His6 antibody formats); type: binding; set-up: made in house; host or cells: E. coli SoluBL-21; details: for TR-FRET dose-response, normalized signal (SI Fig 11): individual replicates; for normalized TR-FRET signal (dose-response replicates): SI Fig 15
[1] = test system: halofuginone-induced P. falciparum (elevated proline homeostasis); experiment: P. falciparum ABS growth assay, SYBR Green, 72 h, halofuginone-induced parasites; type: cell-based, Plasmodium falciparum; details: for parasite growth, replicate wells (Fig 1b): Halofuginone-Induced
Method in brief: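 Asexual blood-stage Dd2 parasites, 1% parasitemia/1% hematocrit, RPMI + 0.5% Albumax; triplicate dose-response, 72 h. Readout SYBR Green 1 fluorescence. Controls: 10 μM dihydroartemisinin (kill), no compound (growth). EC50 values determined.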

Chain of HsProRS (P07814 996-1512): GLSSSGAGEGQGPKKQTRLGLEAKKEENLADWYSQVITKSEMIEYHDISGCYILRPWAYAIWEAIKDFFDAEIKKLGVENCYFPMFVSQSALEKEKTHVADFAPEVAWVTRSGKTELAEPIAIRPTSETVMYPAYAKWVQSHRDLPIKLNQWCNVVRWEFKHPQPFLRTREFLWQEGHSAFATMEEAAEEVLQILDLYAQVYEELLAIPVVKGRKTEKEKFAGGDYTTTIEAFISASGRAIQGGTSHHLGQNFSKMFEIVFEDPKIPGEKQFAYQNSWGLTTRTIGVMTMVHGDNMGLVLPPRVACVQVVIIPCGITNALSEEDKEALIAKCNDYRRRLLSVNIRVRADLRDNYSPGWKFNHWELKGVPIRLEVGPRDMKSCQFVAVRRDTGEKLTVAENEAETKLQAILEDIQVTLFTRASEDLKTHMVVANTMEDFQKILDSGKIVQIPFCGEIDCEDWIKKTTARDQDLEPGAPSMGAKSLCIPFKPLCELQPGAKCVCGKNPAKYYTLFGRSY

O=C(NC1Cc2ccccc2C1)c1nccnc1NC(=O)C1CCCCC1 [compound 2, reference compound]
TR-FRET dose-response, normalized signal (SI Fig 11) (HsProRS; Log[inhibitor] (M) -5.903): 2.61E-01 and 2.29E-01 and 2.70E-01 | normalized TR-FRET ligand displacement signal, dose-response replicates (SI Fig 6) (HsProRS; Log[inhibitor] (M) -6.204): 7.10E-01 and 7.38E-01 and 7.90E-01 | TR-FRET dose-response, normalized signal (SI Fig 11) (HsProRS; Log[inhibitor] (M) -6.204): 4.85E-01 and 4.00E-01 and 4.14E-01 | normalized TR-FRET ligand displacement signal, dose-response replicates (SI Fig 6) (HsProRS; Log[inhibitor] (M) -6.505): 9.53E-01 and 9.22E-01 and 9.58E-01 | TR-FRET dose-response, normalized signal (SI Fig 11) (HsProRS; Log[inhibitor] (M) -6.505): 5.65E-01 and 5.68E-01 and 5.80E-01 | normalized TR-FRET ligand displacement signal, dose-response replicates (SI Fig 6) (HsProRS; Log[inhibitor] (M) -6.806): 8.96E-01 and 9.59E-01 and 9.45E-01 | TR-FRET dose-response, normalized signal (SI Fig 11) (HsProRS; Log[inhibitor] (M) -6.806): 6.77E-01 and 7.64E-01 and 7.01E-01 | normalized TR-FRET ligand displacement signal, dose-response replicates (SI Fig 6) (HsProRS; Log[inhibitor] (M) -7.107): 1.10E+00 and 1.02E+00 and 1.05E+00 | TR-FRET dose-response, normalized signal (SI Fig 11) (HsProRS; Log[inhibitor] (M) -7.107): 8.54E-01 and 8.95E-01 and 8.55E-01 | normalized TR-FRET ligand displacement signal, dose-response replicates (SI Fig 6) (HsProRS; Log[inhibitor] (M) -7.408): 1.04E+00 | TR-FRET dose-response, normalized signal (SI Fig 11) (HsProRS; Log[inhibitor] (M) -7.408): 8.94E-01 and 8.78E-01 and 9.74E-01 | normalized TR-FRET ligand displacement signal, dose-response replicates (SI Fig 6) (HsProRS; Log[inhibitor] (M) -7.709): 9.76E-01 and 1.06E+00 and 1.03E+00 | TR-FRET dose-response, normalized signal (SI Fig 11) (HsProRS; Log[inhibitor] (M) -7.709): 9.26E-01 and 9.17E-01 and 9.24E-01 | normalized TR-FRET ligand displacement signal, dose-response replicates (SI Fig 6) (HsProRS; Log[inhibitor] (M) -8.010): 9.42E-01 and 1.05E+00 and 9.60E-01 | TR-FRET dose-response, normalized signal (SI Fig 11) (HsProRS; Log[inhibitor] (M) -8.010): 9.79E-01 and 9.27E-01 and 9.78E-01 | normalized TR-FRET ligand displacement signal, dose-response replicates (SI Fig 6) (HsProRS; Log[inhibitor] (M) -8.311): 1.02E+00 and 9.93E-01 and 1.06E+00 | TR-FRET dose-response, normalized signal (SI Fig 11) (HsProRS; Log[inhibitor] (M) -8.311): 9.15E-01 and 9.66E-01 and 9.82E-01 | normalized TR-FRET ligand displacement signal, dose-response replicates (SI Fig 6) (HsProRS; Log[inhibitor] (M) -8.612): 9.95E-01 and 1.01E+00 and 1.07E+00 | TR-FRET dose-response, normalized signal (SI Fig 11) (HsProRS; Log[inhibitor] (M) -8.612): 9.61E-01 and 9.59E-01 and 9.62E-01 | normalized TR-FRET ligand displacement signal, dose-response replicates (SI Fig 6) (HsProRS; Log[inhibitor] (M) -8.913): 1.02E+00 and 1.03E+00 and 9.75E-01 | TR-FRET dose-response, normalized signal (SI Fig 11) (HsProRS; Log[inhibitor] (M) -8.913): 9.90E-01 and 9.95E-01 and 9.69E-01 | normalized TR-FRET ligand displacement signal, dose-response replicates (SI Fig 6) (HsProRS; Log[inhibitor] (M) -9.214): 9.83E-01 and 1.03E+00 and 1.00E+00 | TR-FRET dose-response, normalized signal (SI Fig 11) (HsProRS; Log[inhibitor] (M) -9.214): 9.62E-01 and 1.02E+00 and 1.04E+00 | normalized TR-FRET signal (dose-response replicates) (HsProRS; Log[inhibitor] (M) -4.99976): 1.25E-01 and 2.68E-01 and 1.89E-01 | normalized TR-FRET signal (dose-response replicates) (HsProRS; Log[inhibitor] (M) -5.3009): 2.77E-01 and 4.13E-01 and 4.17E-01 | normalized TR-FRET signal (dose-response replicates) (HsProRS; Log[inhibitor] (M) -5.60199): 5.80E-01 and 6.20E-01 and 4.83E-01 | normalized TR-FRET signal (dose-response replicates) (HsProRS; Log[inhibitor] (M) -5.90248): 7.22E-01 and 7.32E-01 and 6.10E-01 | normalized TR-FRET signal (dose-response replicates) (HsProRS; Log[inhibitor] (M) -6.20323): 6.14E-01 and 7.99E-01 and 9.70E-01 | normalized TR-FRET signal (dose-response replicates) (HsProRS; Log[inhibitor] (M) -6.51347): 9.27E-01 and 8.30E-01 and 1.04E+00 | normalized TR-FRET signal (dose-response replicates) (HsProRS; Log[inhibitor] (M) -6.79595): 1.19E+00 and 9.68E-01 and 1.04E+00 | normalized TR-FRET signal (dose-response replicates) (HsProRS; Log[inhibitor] (M) -7.10794): 9.40E-01 and 8.31E-01 and 8.97E-01 | normalized TR-FRET signal (dose-response replicates) (HsProRS; Log[inhibitor] (M) -7.40526): 6.74E-01 and 8.60E-01 and 9.73E-01 | normalized TR-FRET signal (dose-response replicates) (HsProRS; Log[inhibitor] (M) -7.7137): 9.61E-01 and 8.55E-01 and 9.51E-01 | normalized TR-FRET signal (dose-response replicates) (HsProRS; Log[inhibitor] (M) -8): 9.74E-01 and 7.58E-01 and 8.90E-01 | normalized TR-FRET signal (dose-response replicates) (HsProRS; Log[inhibitor] (M) -8.331): 8.05E-01 and 1.09E+00 and 1.00E+00 | normalized TR-FRET signal (dose-response replicates) (HsProRS; Log[inhibitor] (M) -8.57403): 1.32E+00 and 1.15E+00 and 1.19E+00 | normalized TR-FRET signal (dose-response replicates) (HsProRS; Log[inhibitor] (M) -8.87506): 9.35E-01 and 9.99E-01 and 1.09E+00 | normalized TR-FRET signal (dose-response replicates) (HsProRS; Log[inhibitor] (M) -9.17609): 1.03E+00 and 1.04E+00 and 1.09E+00 | parasite growth, replicate wells (Fig 1b) ([1]; Log[inhibitor] (M) -5.000): 1.00E+00 | parasite growth, replicate wells (Fig 1b) ([1]; Log[inhibitor] (M) -5.408): 2.00E+00 | parasite growth, replicate wells (Fig 1b) ([1]; Log[inhibitor] (M) -5.816): 2.40E+01 (2×) and 2.50E+01 | parasite growth, replicate wells (Fig 1b) ([1]; Log[inhibitor] (M) -6.222): 9.70E+01 and 1.00E+02 and 9.90E+01 | parasite growth, replicate wells (Fig 1b) ([1]; Log[inhibitor] (M) -6.638): 1.00E+02 and 1.02E+02 and 1.04E+02 | parasite growth, replicate wells (Fig 1b) ([1]; Log[inhibitor] (M) -7.046): 1.00E+02 and 9.10E+01 and 1.03E+02 | parasite growth, replicate wells (Fig 1b) ([1]; Log[inhibitor] (M) -7.450): 9.40E+01 and 9.70E+01 and 9.80E+01 | parasite growth, replicate wells (Fig 1b) ([1]; Log[inhibitor] (M) -7.854): 9.70E+01 (2×) and 1.00E+02 | parasite growth, replicate wells (Fig 1b) ([1]; Log[inhibitor] (M) -8.260): 1.00E+02 and 9.20E+01 and 9.80E+01 | parasite growth, replicate wells (Fig 1b) ([1]; Log[inhibitor] (M) -8.699): 9.70E+01 (2×) and 9.80E+01 | parasite growth, replicate wells (Fig 1b) ([1]; Log[inhibitor] (M) -9.000): 1.00E+02 and 9.60E+01 and 9.80E+01 | parasite growth, replicate wells (Fig 1b) ([1]; Log[inhibitor] (M) -9.488): 9.80E+01 (2×) and 9.90E+01 | dose-response value, Replicates 1-3 (SI Fig 2e) ([1]; Log[inhibitor] (M) -5.000): 1.0 | dose-response value, Replicates 1-3 (SI Fig 2e) ([1]; Log[inhibitor] (M) -5.408): 2.0
